In patent US20260356814A1, “INDOLINE DERIVATIVES AS SEROTONERGIC AGENTS USEFUL FOR THE TREATMENT OF DISORDERS RELATED THERETO” (MINDSET PHARMA INC., priority 2022, published 2026):

Biological target: T1, human 5-HT2A (h5-HT2A) receptor (Homo sapiens, UniProt P28223)
T1 construct: expressed in transfected cells; host or cells: HEK293 (HTR2A&Ga15-HEK293, tetracycline-induced)
Experiment: FLIPR assay: human 5-HT2A (agonist mode)
Assay type: cell-based
Conditions: for RFU@10 μM: @10 μM (head), footnote: curve fitting with activation (%) @ 10 mM with RFU, RFU=Fmax−Fmin; for EC50: FLIPR calcium, agonist mode, HTR2A&Gα15-HEK293 cells, ND: not detected
Protocol: Assessment of the effect of exemplary compounds of Formula I targeting on human 5-HT2A (h5-HT2A) receptor under agonist mode.
HTR2A&Ga15-HEK293 cells were cultured in DMEM medium containing 10% dialyzed FBS and 1x penicillin-streptomycin, 100 μg/mL Hygromycin B and 300 μg/mL G418. The cells were passaged about three times a week, maintained between ~30% to ~90% confluence.
• 1. The cell culture medium (DMEM medium containing 10% dialyzed FBS and 1× penicillin-streptomycin, 100 μg/mL Hygromycin B and 300 μg/mL G418), TrypLE™ Express and DPBS to R.T. was warmed in advance. • 2. For induction, 1 μg/ml tetracycline (final concentration) was added to cell culture medium and incubated for 48 hours prior to seeding cells into plate at 37° C., 5% (v/v) CO2. The cell culture medium was removed from flask. Cells were washed with DPBS. • 3. 2 mL TrypLE™ Express was added to the flask, mixed well by gentle shaking and cells were incubated at 37° C. for a few minutes. • The cells were checked for morphological change under microscope, the digestion was stopped by adding 4 mL cell culture medium to the flask when most of cells turned to round. • 5. The cell suspension was transferred into a 15 mL centrifuge tube, and then centrifuged at 1,200 rpm for 5 minutes. • 6. The supernatant was removed. The cell pellet was resuspended with 2 mL cell culture medium. • 7. The cell density was counted using cell counter. Only cells with >85% viability were used for the assay. • 8. Cells were diluted to 6.67×10^5/mL with cell culture medium. • 9. 30 μL/well cell suspensions added into a 384-well cell plate (The cell density was 20,000 cells/well). • 10. The cell plate was incubated overnight at 37° C., 5% (v/v) CO2. 2.3 Cell handling • 1. On the day of experiments, culture medium was removed from the cell plate. • 2. 10 μL of assay buffer (20 mM HEPES, in 1×HBSS, pH 7.4) was added to each well of the cell plate. • 3. 2×dye solution was prepared following the manual of the FLIPR® Calcium 6 Assay Kit: • i. The dye was diluted with assay buffer. • ii. Probenecid was added to the final concentration of 5 mM. • iii. Vortexed vigorously for 1-2 minutes. • 4. 10 μL of 2× dye solution was added to each well of the cell plate • 5. The cell plate was placed on plate shaker, followed by shaking at 600 rpm for 2 minutes. • 6. The plate was incubated at 37° C. for 2 hours followed by an additional 15-minute incubation at 25° C. 2.4 Prepare 3×compound • 1. Serotonin HCl was prepared to the concentration of 10 mM with DMSO. • 2. The test compounds were prepared to the concentration of 10 mM with DMSO. • 3. The compounds were added to a 384-well compound source plate. • 4. 3-folds serial dilutions were performed with DMSO. • 5. 90 nL/well of serial diluted compounds was transferred from source plate to a 384-well compound plate by using an Echo. • 6. 30 μL/well of assay buffer (20 mM HEPES in 1x HBSS, pH 7.4) was added to the compound plate. • 7. The plate was mixed on-plate shaker for 2 minutes.
• 1. After the cells were incubated with dye solution, the cell plate, compound plate containing 3×compounds and FLIPR tips were placed into FLIPR. • 2. 10 μL of 3×compounds transferred from the compound plate to the cell plate by FLIPR. • 3. The plate was read for 160 sec with 1 sec interval and the data of agonist mode was obtained.
• 1. The normalized fluorescence reading (RFU) was calculated as shown below, wherein Fmax and Fmin stand for maximum and minimum of calcium signal during defined time window:
RFU=Fmax−Fmin • 2. EC50 by fitting RFU against log of compound concentrations with Hill equation was calculated using XLfit.
The following procedure can also be followed: • 1. Cells are cultured in cell culture medium (DMEM containing 10% FBS, 1× penicillin-streptomycin 300 μg/ml G418 and 100 μg/ml hygromycin B) at 37° C., 5% (v/V) CO2. • 2. One day before the assays, the cells are detached using TrypLE™ Express and cells are counted using cell counter.

T1 sequence (P28223 whole entry): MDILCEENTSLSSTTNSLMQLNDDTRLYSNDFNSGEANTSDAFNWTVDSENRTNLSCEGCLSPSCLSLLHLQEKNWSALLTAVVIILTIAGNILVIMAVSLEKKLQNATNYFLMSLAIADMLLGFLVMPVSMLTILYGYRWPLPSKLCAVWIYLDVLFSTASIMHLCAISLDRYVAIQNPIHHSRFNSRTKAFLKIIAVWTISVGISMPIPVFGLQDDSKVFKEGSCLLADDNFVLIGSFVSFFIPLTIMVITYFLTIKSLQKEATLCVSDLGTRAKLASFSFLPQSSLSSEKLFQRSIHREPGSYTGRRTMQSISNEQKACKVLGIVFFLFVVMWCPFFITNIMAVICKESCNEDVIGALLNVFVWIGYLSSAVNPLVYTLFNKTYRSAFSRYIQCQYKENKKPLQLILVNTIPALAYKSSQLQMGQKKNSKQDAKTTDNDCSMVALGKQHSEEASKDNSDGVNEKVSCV

| Structure (SMILES) | RFU@10 μM [RFU] | EC50 [nM] |
| --- | --- | --- |
| [2H]C([2H])([2H])N1CCC[C@@H]1C([2H])([2H])N1CCc2ccccc21 [(R)-I-1, (R)-1-((1-(Methyl-d3)pyrrolidin-2-yl)methyl-d2) indoline] | 386 | 3550 |
| [2H]C([2H])([2H])Oc1ccc2c(c1)N(C([2H])([2H])[C@H]1CCCN1C([2H])([2H])[2H])CC2 [(R)-I-28, (R)-6-(Methoxy-d3)-1-((1-(methyl-d3)pyrrolidin-2-yl)methyl-d2) indoline] | 3744 | 1090 |
| COc1cc2c(cc1OC)N(C[C@H]1CCCN1C)CC2 [(R)-I-34, (R)-5,6-dimethoxy-1-((1-methylpyrrolidin-2-yl)methyl) indoline] | 268 | – |
| COc1cccc2c1N(C[C@H]1CCCN1C)CC2 [(R)-I-46, (R)-7-Methoxy-1-((1-methylpyrrolidin-2-yl)methyl) indoline] | 487 | 1140 |
| COc1cccc2c1CCN2C[C@H]1CCCN1C [(R)-I-47, (R)-4-Methoxy-1-((1-methylpyrrolidin-2-yl)methyl) indoline] | 174 | – |
| [2H]C([2H])([2H])N1CCC[C@@H]1C([2H])([2H])N1CCc2ccc(OC)cc21 [(R)-I-57, (R)-6-Methoxy-1-((1-(methyl-d3)pyrrolidin-2-yl)methyl-d2) indoline] | 749 | 422 |
| COc1ccc2c(c1)N(C[C@H]1CCCN1C)CC2 [(R)-I-58, (R)-6-Methoxy-1-((1-methylpyrrolidin-2-yl)methyl) indoline] | 796 | 322 |
| COc1ccc2c(c1)N(C[C@H]1CCCN1)CC2 [(R)-I-59, (R)-6-Methoxy-1-(pyrrolidin-2-ylmethyl) indoline] | 801 | 1210 |
| [2H]C([2H])([2H])N(CCN1CCc2ccc(OC)cc21)C([2H])([2H])[2H] [Compound I-70, 2-(6-Methoxyindolin-1-yl)-N, N-bis(methyl-d3) ethan-1-amine] | 303 | – |
| [2H]C([2H])([2H])N(CCN1CCc2ccccc21)C([2H])([2H])[2H] [Compound I-71, 2-(Indolin-1-yl)-N,N-bis(methyl-d3) ethan-1-amine] | 280 | – |
